The results in this text go back to patent US8404718B2, “Combinations of pyrazole kinase inhibitors” (Astex Therapeutics Limited, priority 2005, dated 2013).

Assay [1] concerns human colon carcinoma cell line HCT 116. In words: Anti-proliferative activity, Alamar Blue assay. The assay is classed as cell-based. As to conditions: 72 hours compound incubation, read-out: IC50, inhibition of cell growth, HCT 116. Here is the method: The anti-proliferative activities of the combinations of the invention, as well as the individual components of the combinations, are determined by measuring the ability of the compounds to inhibition of cell growth in a number of cell lines. Inhibition of cell growth is measured using the Alamar Blue assay (Nociari, M. M, Shalev, A., Benias, P., Russo, C. Journal of Immunological Methods 1998, 213, 157-167). The method is based on the ability of viable cells to reduce resazurin to its fluorescent product resorufin. For each proliferation assay cells are plated onto 96 well plates and allowed to recover for 16 hours prior to the addition of inhibitor compounds for a further 72 hours. At the end of the incubation period 10% (v/v) Alamar Blue is added and incubated for a further 6 hours prior to determination of fluorescent product at […]. In the case of the non-proliferating cell assay cells are maintained at confluence for 96 hour prior to the addition of inhibitor compounds for a further 72 hours. The number of viable cells is determined by Alamar Blue assay as before. All cell lines are obtained from ECACC (European Collection of cell Cultures).
(In general: Resazurin is reduced to fluorescent resorufin, in cell work by metabolically active cells.)

The target in the next assay is Activated CDK2/CyclinA (Homo sapiens, UniProt P24941). The experiment in a line: Activated CDK2/CyclinA kinase inhibitory activity assay (IC50), Example 250A. The assay is classed as biochemical. Here is the method:
Compounds of the invention were tested for kinase inhibitory activity using the following protocol.
The reaction is allowed to proceed for 2 to 4 hours before being stopped with an excess of ortho-phosphoric acid (5 μl at 2%).
γ^33P-ATP which remains unincorporated into the histone H1 is separated from phosphorylated histone H1 on a Millipore MAPH filter plate. The wells of the MAPH plate are wetted with 0.5% orthophosphoric acid, and then the results of the reaction are filtered with a Millipore vacuum filtration unit through the wells. Following filtration, the residue is washed twice with 200 μl of 0.5% orthophosphoric acid. Once the filters have dried, 20 μl of Microscint 20 scintillant is added, and then counted on a Packard Topcount for 30 seconds.

Each structure is given as a SMILES string.

With `COc1ccccc1CNC(=O)c1n[nH]cc1NC(=O)c1c(F)cccc1F` [Example 96], the IC50 (in assay [1]; at Activated CDK2/CyclinA) was below 20 µM in each case.

In the case of `Cc1nn(C)c(C)c1CNC(=O)c1n[nH]cc1NC(=O)c1c(F)cccc1F` [Example 99], the IC50 (usually the point on the concentration scale where inhibition reaches its midpoint) in assay [1] is below 100 µM; against Activated CDK2/CyclinA, below 20 µM.

`O=C(NCC1CCCO1)c1n[nH]cc1NC(=O)c1c(F)cccc1F` (centres unmarked) [Example 100]: the IC50 (in assay [1]; on Activated CDK2/CyclinA) was below 20 µM each time.

`Cc1cc(CNC(=O)c2n[nH]cc2NC(=O)c2c(F)cccc2F)no1` [Example 101]: the IC50 (in assay [1]; on Activated CDK2/CyclinA) was below 20 µM throughout.

For the compound `O=C(NCc1cccnc1)c1n[nH]cc1NC(=O)c1c(F)cccc1F` [Example 103], the IC50 (in assay [1]; on Activated CDK2/CyclinA) was below 20 µM each time.

Regarding `O=C(NCc1ccncc1)c1n[nH]cc1NC(=O)c1c(F)cccc1F` [Example 104], the IC50 (in assay [1]; against Activated CDK2/CyclinA) was below 20 µM each time.

Consider `O=C(NCc1ccco1)c1n[nH]cc1NC(=O)c1c(F)cccc1F` [Example 107], for which the IC50 (in assay [1]; at Activated CDK2/CyclinA) was below 20 µM in each case.

As for `CC(NC(=O)c1n[nH]cc1NC(=O)c1c(F)cccc1F)c1ccccc1` (centres unmarked) [Example 108], the IC50 is below 100 µM in assay [1] and below 20 µM at Activated CDK2/CyclinA.

For `O=C(NC1CCN(CC2CC2)CC1)c1n[nH]cc1NC(=O)c1c(F)cccc1F` [Example 109], the IC50 (in assay [1]; against Activated CDK2/CyclinA) was below 20 µM each time.

Take `O=C(NC1CCN(c2ncccn2)CC1)c1n[nH]cc1NC(=O)c1c(F)cccc1F` [Example 110]: the IC50 (in assay [1]; against Activated CDK2/CyclinA) was below 20 µM throughout.

On to `O=C(NCC1CCNCC1)c1n[nH]cc1NC(=O)c1c(F)cccc1F` [Example 111], for which the IC50 (in assay [1]; against Activated CDK2/CyclinA) was below 20 µM in each case.

Take `O=C(NC1CCN(c2ccccn2)CC1)c1n[nH]cc1NC(=O)c1c(F)cccc1F` [Example 112]: the IC50 (in assay [1]; against Activated CDK2/CyclinA) was below 20 µM in each case.

Regarding `CC1CCC(NC(=O)c2n[nH]cc2NC(=O)c2c(F)cccc2F)CC1` (centres unmarked) [Example 113], the concentration for half-maximal inhibition (IC50) (in assay [1]; against Activated CDK2/CyclinA) was below 20 µM in each case.

Turning to `O=C(NC1CCN(CC(F)(F)F)CC1)c1n[nH]cc1NC(=O)c1c(F)cccc1F` [Example 114], the IC50 (in assay [1]; against Activated CDK2/CyclinA) was below 20 µM each time.

For `O=C(NC1CCN(c2cccc(Cl)n2)CC1)c1n[nH]cc1NC(=O)c1c(F)cccc1F` [Example 115], the IC50 (in assay [1]; against Activated CDK2/CyclinA) was below 20 µM throughout.

In the case of `O=C(N[C@H]1CC[C@H](NC2CCOCC2)CC1)c1n[nH]cc1NC(=O)c1c(F)cccc1F` [Example 116], the 50% inhibitory concentration (IC50) (in assay [1]; against Activated CDK2/CyclinA) was below 20 µM throughout.

Consider `CN1CCN([C@H]2CC[C@H](NC(=O)c3n[nH]cc3NC(=O)c3c(F)cccc3F)CC2)CC1` [Example 117], for which the IC50 (in assay [1]; at Activated CDK2/CyclinA) was below 20 µM each time.

As to `CN1CCN([C@H]2CC[C@@H](NC(=O)c3n[nH]cc3NC(=O)c3c(F)cccc3F)CC2)CC1` [Example 118], the half-inhibitory concentration (IC50) (in assay [1]; against Activated CDK2/CyclinA) was below 20 µM in each case.

Consider `O=C(NC1CCC(CO)CC1)c1n[nH]cc1NC(=O)c1c(F)cccc1F` (centres unmarked) [Example 120], for which the IC50 (in assay [1]; on Activated CDK2/CyclinA) was below 20 µM throughout.

As to `O=C(NC1CCC(N2CCSCC2)CC1)c1n[nH]cc1NC(=O)c1c(F)cccc1F` (centres unmarked) [Example 121], the IC50 (in assay [1]; on Activated CDK2/CyclinA) was below 20 µM each time.

Consider `CN(C)[C@H]1CC[C@H](NC(=O)c2n[nH]cc2NC(=O)c2c(F)cccc2F)CC1` [Example 124], for which the IC50 (in assay [1]; at Activated CDK2/CyclinA) was below 20 µM each time.

With `COCCN1CCC(NC(=O)c2n[nH]cc2NC(=O)c2c(F)cccc2F)CC1` [Example 125], the IC50 (in assay [1]; on Activated CDK2/CyclinA) was below 20 µM each time.

Turning to `O=C(N[C@H]1CC[C@H](N2CCS(=O)(=O)CC2)CC1)c1n[nH]cc1NC(=O)c1c(F)cccc1F` [Example 132], the IC50 (in assay [1]; against Activated CDK2/CyclinA) was below 20 µM each time.

Regarding `O=C(NC1CCN(CC2CCOC2)CC1)c1n[nH]cc1NC(=O)c1c(F)cccc1F` (centres unmarked) [Example 133], the IC50 (in assay [1]; against Activated CDK2/CyclinA) was below 20 µM in each case.

For the compound `CC(C)(C)OC(=O)N1CCC(NC(=O)c2n[nH]cc2NC(=O)c2c(F)cc(F)cc2F)CC1` [Example 136], the IC50 (in assay [1]; against Activated CDK2/CyclinA) was below 20 µM throughout.

Turning to `CO[C@H]1CC[C@H](NC(=O)c2n[nH]cc2NC(=O)c2c(F)cccc2F)CC1` [Example 137], the 50% inhibitory concentration (IC50) (in assay [1]; against Activated CDK2/CyclinA) was below 20 µM each time.

In the case of `O=C1CC[C@H](NC(=O)c2n[nH]cc2NC(=O)c2c(F)cccc2F)CN1` [Example 139], the IC50 (in assay [1]; against Activated CDK2/CyclinA) was below 20 µM each time.

As for `O=C(NC1CCNCC1)c1n[nH]cc1NC(=O)c1c(F)cc(F)cc1F` [Example 148], the IC50 (in assay [1]; against Activated CDK2/CyclinA) was below 20 µM each time.

Regarding `O=C(N[C@H]1CCCNC1)c1n[nH]cc1NC(=O)c1c(F)cccc1F` [Example 152], the IC50 (in assay [1]; against Activated CDK2/CyclinA) was below 20 µM throughout.

`COc1ccccc1C(=O)Nc1c[nH]nc1C(=O)N[C@H]1CC[C@H](O)CC1` [Example 153]: the IC50 (in assay [1]; on Activated CDK2/CyclinA) was below 20 µM throughout.

On to `COc1cccc(F)c1C(=O)Nc1c[nH]nc1C(=O)N[C@H]1CC[C@H](O)CC1` [Example 154], for which the IC50 (in assay [1]; at Activated CDK2/CyclinA) was below 20 µM each time.

On to `O=C(N[C@H]1CC[C@H](O)CC1)c1n[nH]cc1NC(=O)c1c(F)cccc1Cl` [Example 155], for which the IC50 (in assay [1]; against Activated CDK2/CyclinA) was below 20 µM throughout.

With `COc1cscc1C(=O)Nc1c[nH]nc1C(=O)N[C@H]1CC[C@H](O)CC1` [Example 158], the IC50 (in assay [1]; on Activated CDK2/CyclinA) was below 20 µM each time.

Take `O=C(Nc1c[nH]nc1C(=O)N[C@H]1CC[C@H](O)CC1)c1cccc2c1OCCO2` [Example 159]: the IC50 (in assay [1]; against Activated CDK2/CyclinA) was below 20 µM throughout.

Compound `O=C(N[C@H]1CC[C@@H](NC2CCOCC2)CC1)c1n[nH]cc1NC(=O)c1c(F)cccc1F` [Example 170] registered an IC50 at Activated CDK2/CyclinA below 20 µM.

For the compound `CN1CCC(NC(=O)Nc2c[nH]nc2C(=O)N[C@H]2CC[C@H](O)CC2)CC1` [Example 171], the IC50 at Activated CDK2/CyclinA is below 20 µM.

As to `CC(C)(C)OC(=O)N1CCC(NC(=O)c2n[nH]cc2NC(=O)c2ccccc2)CC1` [Example 172], the 50% inhibitory concentration (IC50) against Activated CDK2/CyclinA was below 20 µM.

On Activated CDK2/CyclinA, `CC(C)(C)OC(=O)N1CCC(NC(=O)c2n[nH]cc2NC(=O)c2ccc(F)cc2)CC1` [Example 173] displayed an IC50 below 20 µM.

Regarding `CN1CCC(N2CCC(NC(=O)c3n[nH]cc3NC(=O)c3c(F)cccc3F)CC2)CC1` [Example 177], on Activated CDK2/CyclinA, the IC50 was below 20 µM.

As to `CN1CCC(C(=O)Nc2c[nH]nc2C(=O)NCC2CC2)CC1` [Example 181], at Activated CDK2/CyclinA, the IC50 is below 20 µM.

On Activated CDK2/CyclinA, `CC(C)(C)NC(=O)Nc1c[nH]nc1C(=O)NCC1CC1` [Example 184] gave an IC50 below 20 µM.

As to `O=C(N[C@@H]1CCNC1)c1n[nH]cc1NC(=O)c1c(F)cccc1F` [Example 185], the IC50 at Activated CDK2/CyclinA is below 20 µM.

Regarding `CO[C@H]1CC[C@H](NC(=O)c2n[nH]cc2NC(=O)c2c(Cl)cccc2Cl)CC1` [Example 210], the IC50 at Activated CDK2/CyclinA is below 20 µM.
